Experimental data: ChEMBL document CHEMBL1144174, “Design and synthesis of 6-fluoro-2-naphthyl derivatives as novel CCR3 antagonists with reduced CYP2D6 inhibition” (Bioorg Med Chem, 2008)
Calls of active or inactive are those of the source. No cut-off for these calls is given here.

What was measured:
Cytochrome P450 2D6 = Cytochrome P450 2D6 (Homo sapiens, UniProt P10635); experiment: Inhibition of human CYP2D6 by fluorescence technique in presence of NADP; format: ADME
[1] = biological target: T1, C-C chemokine receptor type 3 (Homo sapiens, UniProt P51677); experiment: Antagonist activity at CCR3 receptor expressed in mouse B300-19 cells assessed as inhibition of eotaxin-induced calcium influx by spectrophotometry; format: functional, cell-based
T1 sequence (P51677 whole entry): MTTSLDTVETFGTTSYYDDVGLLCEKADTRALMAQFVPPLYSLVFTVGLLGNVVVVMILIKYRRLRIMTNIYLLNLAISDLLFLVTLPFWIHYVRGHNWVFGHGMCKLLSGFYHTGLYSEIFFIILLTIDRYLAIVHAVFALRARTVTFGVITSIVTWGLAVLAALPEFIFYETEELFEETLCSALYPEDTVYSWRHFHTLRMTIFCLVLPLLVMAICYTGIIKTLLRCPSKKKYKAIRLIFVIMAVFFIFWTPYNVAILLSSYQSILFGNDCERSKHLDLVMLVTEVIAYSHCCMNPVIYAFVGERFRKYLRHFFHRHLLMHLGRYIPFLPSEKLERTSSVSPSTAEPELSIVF

Cytochrome P450 2C9 = Cytochrome P450 2C9 (Homo sapiens, UniProt P11712); experiment: Inhibition of human CYP2C9; format: ADME
Cytochrome P450 2C9, sequence (P11712 whole entry): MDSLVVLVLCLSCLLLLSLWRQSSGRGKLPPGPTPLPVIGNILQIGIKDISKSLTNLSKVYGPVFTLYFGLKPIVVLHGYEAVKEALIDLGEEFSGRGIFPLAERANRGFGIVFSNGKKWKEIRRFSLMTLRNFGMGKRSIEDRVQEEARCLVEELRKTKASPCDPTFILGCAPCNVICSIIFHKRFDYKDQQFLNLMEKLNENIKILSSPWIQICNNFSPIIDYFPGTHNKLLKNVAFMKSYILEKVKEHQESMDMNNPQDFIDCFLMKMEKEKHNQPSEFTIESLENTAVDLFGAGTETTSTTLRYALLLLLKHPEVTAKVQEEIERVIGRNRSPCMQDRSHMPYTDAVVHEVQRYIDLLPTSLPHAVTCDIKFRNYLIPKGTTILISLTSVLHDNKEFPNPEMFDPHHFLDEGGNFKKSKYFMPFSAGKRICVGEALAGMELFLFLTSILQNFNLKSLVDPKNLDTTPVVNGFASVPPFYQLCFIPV

Cytochrome P450 3A4 = Cytochrome P450 3A4 (Homo sapiens, UniProt P08684); experiment: Inhibition of human CYP3A4; format: ADME
Cytochrome P450 3A4, sequence (P08684 whole entry): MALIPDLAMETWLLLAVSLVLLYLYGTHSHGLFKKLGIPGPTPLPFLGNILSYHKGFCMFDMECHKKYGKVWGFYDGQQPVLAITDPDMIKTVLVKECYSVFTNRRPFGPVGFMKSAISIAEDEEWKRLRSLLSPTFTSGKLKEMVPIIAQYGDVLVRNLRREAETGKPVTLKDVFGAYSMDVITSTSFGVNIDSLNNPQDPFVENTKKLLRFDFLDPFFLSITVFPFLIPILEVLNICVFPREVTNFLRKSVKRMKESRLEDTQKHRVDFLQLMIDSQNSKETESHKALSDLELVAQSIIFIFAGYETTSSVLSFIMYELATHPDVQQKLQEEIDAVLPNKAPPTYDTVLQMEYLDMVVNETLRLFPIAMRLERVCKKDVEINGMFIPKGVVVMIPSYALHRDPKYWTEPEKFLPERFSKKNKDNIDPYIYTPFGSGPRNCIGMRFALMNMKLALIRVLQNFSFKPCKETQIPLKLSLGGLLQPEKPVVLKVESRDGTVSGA

Cytochrome P450 1A2 = biological target: T2, Cytochrome P450 1A2 (Homo sapiens, UniProt P05177); experiment: Inhibition of human CYP1A2; format: ADME
T2 sequence (P05177 whole entry): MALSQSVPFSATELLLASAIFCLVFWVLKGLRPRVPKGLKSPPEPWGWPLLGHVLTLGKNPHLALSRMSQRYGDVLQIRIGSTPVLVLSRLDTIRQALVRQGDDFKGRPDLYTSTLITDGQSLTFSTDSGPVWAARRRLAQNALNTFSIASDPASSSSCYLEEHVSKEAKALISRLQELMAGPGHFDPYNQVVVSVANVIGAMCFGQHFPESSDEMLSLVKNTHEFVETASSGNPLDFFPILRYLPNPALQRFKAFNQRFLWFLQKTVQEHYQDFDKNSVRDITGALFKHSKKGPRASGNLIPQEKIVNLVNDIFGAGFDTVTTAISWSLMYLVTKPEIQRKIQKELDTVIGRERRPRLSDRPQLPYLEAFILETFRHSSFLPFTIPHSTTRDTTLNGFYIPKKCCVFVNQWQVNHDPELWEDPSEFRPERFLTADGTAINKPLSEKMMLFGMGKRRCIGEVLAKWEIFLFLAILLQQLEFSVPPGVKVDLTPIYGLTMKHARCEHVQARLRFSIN

Cytochrome P450 2C19 = Cytochrome P450 2C19 (Homo sapiens, UniProt P33261); experiment: Inhibition of human CYP2C19; format: ADME
Cytochrome P450 2C19, sequence (P33261 whole entry): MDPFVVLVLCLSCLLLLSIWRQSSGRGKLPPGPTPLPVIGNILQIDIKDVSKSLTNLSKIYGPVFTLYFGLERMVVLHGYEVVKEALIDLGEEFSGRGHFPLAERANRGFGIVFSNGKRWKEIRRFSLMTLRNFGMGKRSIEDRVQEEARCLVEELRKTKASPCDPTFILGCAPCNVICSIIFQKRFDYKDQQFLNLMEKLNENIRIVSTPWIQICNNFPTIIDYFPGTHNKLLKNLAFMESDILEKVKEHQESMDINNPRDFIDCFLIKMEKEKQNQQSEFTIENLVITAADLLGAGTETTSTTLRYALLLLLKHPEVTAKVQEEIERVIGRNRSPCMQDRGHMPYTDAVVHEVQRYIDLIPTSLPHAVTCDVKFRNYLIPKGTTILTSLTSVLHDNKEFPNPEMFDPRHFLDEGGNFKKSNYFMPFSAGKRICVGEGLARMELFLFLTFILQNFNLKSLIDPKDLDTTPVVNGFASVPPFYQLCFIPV

[2] = biological target: C-C chemokine receptor type 2 (Homo sapiens) (UniProt P41597); experiment: Inhibition of CCR2 receptor at 10 uM
C-C chemokine receptor type 2 (Homo sapiens), sequence (P41597 whole entry, looked up): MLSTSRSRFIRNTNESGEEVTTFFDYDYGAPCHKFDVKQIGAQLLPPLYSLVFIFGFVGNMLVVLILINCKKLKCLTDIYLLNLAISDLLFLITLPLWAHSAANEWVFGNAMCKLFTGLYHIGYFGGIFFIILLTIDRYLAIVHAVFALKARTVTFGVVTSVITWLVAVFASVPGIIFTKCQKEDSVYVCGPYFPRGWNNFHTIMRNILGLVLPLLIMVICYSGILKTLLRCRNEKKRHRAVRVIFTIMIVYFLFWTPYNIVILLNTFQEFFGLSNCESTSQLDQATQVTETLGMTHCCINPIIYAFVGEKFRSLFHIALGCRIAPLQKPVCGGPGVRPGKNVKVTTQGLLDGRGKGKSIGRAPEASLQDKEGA

[3] = biological target: C-C chemokine receptor type 5 (Homo sapiens) (UniProt P51681); experiment: Inhibition of CCR5 receptor at 10 uM
C-C chemokine receptor type 5 (Homo sapiens), sequence (P51681 whole entry, looked up): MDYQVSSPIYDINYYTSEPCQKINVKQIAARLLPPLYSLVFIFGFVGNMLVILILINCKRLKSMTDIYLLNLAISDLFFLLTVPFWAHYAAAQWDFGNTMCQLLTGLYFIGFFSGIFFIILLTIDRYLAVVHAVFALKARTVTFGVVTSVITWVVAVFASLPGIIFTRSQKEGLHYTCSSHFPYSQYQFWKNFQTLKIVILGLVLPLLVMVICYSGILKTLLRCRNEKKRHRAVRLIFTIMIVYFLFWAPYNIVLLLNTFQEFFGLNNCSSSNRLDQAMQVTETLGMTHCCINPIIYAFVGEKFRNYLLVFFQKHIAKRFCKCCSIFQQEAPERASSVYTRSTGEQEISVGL

[4] = biological target: T3, C-C chemokine receptor type 1 (Homo sapiens) (UniProt P32246); experiment: Inhibition of CCR1 receptor at 10 uM
T3 sequence (whole entry): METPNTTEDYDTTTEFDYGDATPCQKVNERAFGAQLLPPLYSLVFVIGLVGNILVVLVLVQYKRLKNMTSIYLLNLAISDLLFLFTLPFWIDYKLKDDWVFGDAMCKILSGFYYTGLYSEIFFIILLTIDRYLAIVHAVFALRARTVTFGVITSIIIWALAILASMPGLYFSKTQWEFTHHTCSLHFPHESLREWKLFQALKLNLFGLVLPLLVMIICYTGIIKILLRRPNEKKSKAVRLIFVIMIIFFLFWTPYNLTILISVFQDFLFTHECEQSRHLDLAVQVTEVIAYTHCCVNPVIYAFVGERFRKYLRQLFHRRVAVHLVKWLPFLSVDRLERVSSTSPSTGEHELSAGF

Cytochrome P450 2D6, sequence (P10635 whole entry): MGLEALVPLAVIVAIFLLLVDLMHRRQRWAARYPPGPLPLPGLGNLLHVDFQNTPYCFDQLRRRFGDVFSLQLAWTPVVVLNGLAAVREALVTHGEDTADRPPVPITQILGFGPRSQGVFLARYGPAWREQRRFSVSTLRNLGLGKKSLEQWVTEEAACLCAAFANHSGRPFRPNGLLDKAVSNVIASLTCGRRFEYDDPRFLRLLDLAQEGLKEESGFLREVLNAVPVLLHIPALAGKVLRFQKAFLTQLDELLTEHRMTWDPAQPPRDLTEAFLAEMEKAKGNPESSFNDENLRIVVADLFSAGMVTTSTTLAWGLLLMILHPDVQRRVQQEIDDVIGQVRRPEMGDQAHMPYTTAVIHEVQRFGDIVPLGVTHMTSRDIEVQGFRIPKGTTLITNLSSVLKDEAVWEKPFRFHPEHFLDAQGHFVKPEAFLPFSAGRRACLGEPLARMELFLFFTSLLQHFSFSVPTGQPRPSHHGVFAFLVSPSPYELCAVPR

SMILES	IC50 (Cytochrome P450 2D6) [nM]	IC50 [1] [nM]	also measured
O=C(N[C@@H]1C[C@H]2CC[C@@H](C1)N2Cc1ccc2cc(F)ccc2c1)c1ccccc1-c1nccs1	2400	89	
CN1CCN(C(=O)c2ccccc2C(=O)N[C@@H]2C[C@H]3CC[C@@H](C2)N3Cc2ccc3cc(F)ccc3c2)CC1	7100	482	
CN(C(=O)c1ccccc1C(=O)N[C@@H]1C[C@H]2CC[C@@H](C1)N2Cc1ccc2cc(F)ccc2c1)C1CCCCC1	2900	44	
O=C(N[C@@H]1C[C@H]2CC[C@@H](C1)N2Cc1ccc2cc(F)ccc2c1)c1ccncc1C(=O)N1CCCCC1	6800	13	
O=C(N[C@@H]1C[C@H]2CC[C@@H](C1)N2Cc1ccc2cc(F)ccc2c1)c1ccccc1OC1CCCCC1	580	118	
O=C(N[C@@H]1C[C@H]2CC[C@@H](C1)N2Cc1ccc2cc(F)ccc2c1)c1ccccc1C(=O)N1CCCCCC1	3000	12	
O=C(NC1C[C@H]2CC[C@H](C1)N2Cc1ccc2cc(F)ccc2c1)c1ccccc1-c1ccccc1 (stereo partly specified)			IC50 (Cytochrome P450 2C9): > 20000 nM; IC50 (Cytochrome P450 3A4): > 20000 nM; IC50 (Cytochrome P450 1A2): > 20000 nM; IC50 (Cytochrome P450 2C19): > 20000 nM
O=C(N[C@@H]1C[C@H]2CC[C@@H](C1)N2Cc1ccc2cc(F)ccc2c1)c1ccccc1-c1cncnc1	2900	93	
O=C(N[C@@H]1C[C@H]2CC[C@@H](C1)N2Cc1ccc2cc(F)ccc2c1)c1ccccc1N1CCCCC1		279	
O=C(N[C@@H]1C[C@H]2CC[C@@H](C1)N2Cc1ccc2cc(F)ccc2c1)c1ccccc1C(=O)N1CCCC1	7300	225	
O=C(N[C@@H]1C[C@H]2CC[C@@H](C1)N2Cc1ccc2cc(F)ccc2c1)c1ccccc1-c1ccccn1	4000	57	
O=C(N[C@@H]1C[C@H]2CC[C@@H](C1)N2Cc1ccc2cc(F)ccc2c1)c1ccccc1-n1cccc1		221	
O=C(N[C@@H]1C[C@H]2CC[C@@H](C1)N2Cc1ccc2cc(F)ccc2c1)c1cc[n+]([O-])cc1C(=O)N1CCCCC1			Activity [2]: inactive; Activity [3]: inactive; Activity [4]: inactive
O=C(N[C@@H]1C[C@H]2CC[C@@H](C1)N2Cc1ccc2cc(F)ccc2c1)c1cnccc1C(=O)N1CCCCC1	26700	85	
O=C(N[C@@H]1C[C@H]2CC[C@@H](C1)N2Cc1ccc2cc(F)ccc2c1)c1cccnc1C(=O)N1CCCCC1	18300	98	
O=C(N[C@@H]1C[C@H]2CC[C@@H](C1)N2Cc1ccc2cc(F)ccc2c1)c1ccccc1C(=O)N1CCCCC1	6500	23	
O=C(N[C@@H]1C[C@H]2CC[C@@H](C1)N2Cc1ccc2cc(F)ccc2c1)c1ccccc1-n1ccnc1		217	
O=C(N[C@@H]1C[C@H]2CC[C@@H](C1)N2Cc1ccc2cc(F)ccc2c1)c1ccccc1-c1cccnc1	1600	29	
O=C(N[C@@H]1C[C@H]2CC[C@@H](C1)N2Cc1ccc2cc(F)ccc2c1)c1ccccc1C(=O)N1CCOCC1	8200	679	
O=C(N[C@@H]1C[C@H]2CC[C@@H](C1)N2Cc1ccc2cc(F)ccc2c1)c1ccccc1-c1ccncc1		613	
O=C(N[C@@H]1C[C@H]2CC[C@@H](C1)N2Cc1ccc2cc(F)ccc2c1)c1ncccc1C(=O)N1CCCCC1	23500	131	
